The source made the active and inactive calls. The calls are words filed in the database; no cut-off is given here.
Tests used:
Format in all cases: functional, cell-based
MCF7 = test: Cytotoxicity against human MCF7 cells
HepG2 = test: (§1) Cytotoxicity against human Hep G2 cells
[1] = as §1; settings: HepG2

SMILES: C[C@@H]1C[C@]2(OCC[C@]3(C)O[C@H]23)O[C@H]2C[C@@]3(C)C4=CC[C@H]5C(C)(C)[C@@H](O[C@@H]6OC[C@@H](O)[C@H](O)[C@H]6O)CC[C@@]56C[C@@]46CC[C@]3(C)[C@@H]12
- Activity (MCF7): inactive
- Activity (HepG2): inactive

SMILES: CC(=O)O[C@@H]1C[C@@]23C[C@@]24CC[C@H](O[C@@H]2OC[C@@H](O)[C@H](O)[C@H]2O)C(C)(C)[C@@H]4CC[C@H]3[C@]2(C)C[C@@H]3OC(C(=O)C(C)C)=C[C@@H](C)[C@@H]3[C@@]12C [ASIATICOSIDE A]
- IC50 (MCF7): 9.78 µM
- IC50 [1]: 9.9 µM

SMILES: CC(=O)O[C@@H]1C[C@@]23C[C@@]24CC[C@H](O[C@@H]2OC[C@@H](O)[C@H](O)[C@H]2O)C(C)(C)[C@@H]4CC=C3[C@]2(C)C[C@@H]3OC(C(=O)C(C)C)=C[C@@H](C)[C@@H]3[C@@]12C [ASIATICOSIDE B]
- IC50 (MCF7): 8.32 µM
- IC50 [1]: 9.74 µM

Reference: ChEMBL document CHEMBL1158090, “Cytotoxic cycloartane triterpene saponins from Actaea asiatica” (J Nat Prod, 2006)
